Results: patent publication US9796676B2, “Honeybee repellents and uses thereof” (Inscent, Inc., priority 2013, dated 2017)

How the values were obtained:
[1] = test system: OBP2; experiment: Fluorescent-quench ligand-protein-binding assay (OBP2 binding); design: species or system Apis mellifera
Description: To identify a honeybee repellent disclosed herein, candidate compounds were screened based upon the fact that 2-heptanone is an established repellent of bees. 2-heptanone is thought to mediate its behavioral response through binding to a specific odorant-binding protein called OBP2. […] Such assays are generally known in the art. See, e.g., Briand, et al., Ligand-Binding Properties and Structural Characterization of a Novel Rat Odorant-Binding Protein Variant, Eur. J. Biochem. 267(10): 3079-3089 (2000); Briand, et al., Ligand Binding and Physico-Chemical Properties of ASP2, A Recombinant Odorant-Binding Protein From Honeybee (Apis mellifera L.), Eur. J. Biochem. 268(3): 752-760 (2001); Briand, et al., Characterization of a Chemosensory Protein (ASP3c) from Honeybee (Apis mellifera L.) as a Brood Pheromone Carrier, Eur. J. Biochem. 269(18): 4586-4596 (2002), each of which is hereby incorporated by reference in its entirety.

[2] = test system: Apis mellifera Carniolan foraging worker honeybees; experiment: Choice test in a free-flight box apparatus; assay type: in vivo; details: for P (probability that a honeybee will return to a test dish, nP divided by n): control likelihood without compound 47.5%; for nP (number of tests a honeybee returned to a preferred test dish): free-flight box, 2 μL of 0.05-0.5% compound on filter papers under honey dish
Description: To determine whether living honeybees will choice to move towards a source of a candidate compound, these compounds will be assayed using a choice test in a free-flight box apparatus.
All tests will be done in a free-flight box apparatus. The apparatus comprises a 244 cm long×46 cm deep×30 cm high clear plastic box including two equally-sized independent testing chambers, each with 10 cm diameter air inlets that admit filtered room air, separated by a smaller central chamber with a screened air outlet to each testing chamber. Air can be pulled through the sealed box via a 10 cm diameter duct from the air outlet using an AQE Fume Fighter 500 fume extractor (BPA Air Quality Solutions, LLC, Charleston, S.C.), which removes the test odors using activated charcoal and HEPA filters. The box is housed in an environmentally controlled room with overhead illumination timed to correspond to the current ambient light cycle including 2 additional sets of lights timed to approximate crepuscular lighting conditions. The bottom of the apparatus will be lined with clean absorbent paper marked with a 4×9 grid pattern, forming 12 cm×12 cm squares with marked coordinates.
Apis mellifera Carniolan foraging worker honeybees will be obtained from a local apiary (typically 60 bees per shipment). Thirty honeybees will be put into each testing chamber and will be allowed to acclimate for 24 hours with food and water freely available. At the beginning of each test day all food will be removed from the test chamber, but water will be continually available throughout all tests. For each test, approximately 0.3 g of organic, raw orange blossom honey will be added to each clean small plastic weigh boat (Cole-Palmer). The honey boats will be placed in small plastic culture dishes, which will be distributed in the marked squares in the chambers. The positions of the dishes on the grid for a set of trials will be chosen to avoid the bees' preferred resting area so that they will have to find the food actively, but the same dish positions will be maintained for a given set of trials. We will use seven dishes of honey: six to which the bees will have access and a seventh that will have a screened lid. The honey in each boat will be weighed on an analytical balance before and after the test, with the screened sample as a control for evaporative loss. The fume extractor will be left off during the experimental trails, and will be turned on to clear the air after the test dishes are covered and removed from the chamber at the end of each trial.
Based on the observation that bees tend to return to dishes in the same position where they have fed before, each set of trials with each group of bees began with “Pattern Identification” tests to see which dishes lose the most weight, reflecting the most feeding. Once bees are consuming an acceptable amount in 10-15 min, typically in 1-2 trials, a set of test compound trials will begin. The test compound will be pipetted onto pieces of filter paper placed on the dish bottom below the boat containing a fresh, weighed honey sample so that the test compound will be inaccessible to the bees. We used 2 μL of a candidate compound at a concentration of 0.05-0.5%, in Triton X-100 or paraffin oil, on each of four pieces of filter paper per dish. The test-solution dishes will be set at the same positions as the one or two dishes favored in the preceding Pattern Identification trial. To eliminate interference from the solvent, the other dishes without the test substance will contain the same volume of the appropriate solvent on filter papers as the test solution dishes. The bees will be allowed to feed for 10-15 minutes. Bee movements will be recorded by a small, wide-angle digital video camcorder (HD Hero 960; GoPro, Halfmoon Bay, Calif.) placed on a tripod in front of the test chamber. […]

[3] = test system: Apis mellifera Carniolan foraging worker honeybees; experiment: Proboscis extension response (PER) assay with bees conditioned to 2-heptanone; assay type: in vivo; details: 0.5% compound in Triton X-100/water on filter paper, 4 s exposure; only bees giving PER with 2-heptanone and not with water or 15% Triton X-100 controls counted
Description: To determine whether a living honeybee can recognize a candidate compound, these compounds were tested using a proboscis extension response (PER) assay using classical conditioning approaches. Proboscis extension response conditioning is a case of appetitive learning, in which bees learn to associate odor stimuli with sucrose reward in the laboratory. In this case, bees were conditioned to produce a PER to 2-heptanone as the conditioned stimulus and a sugar reward as the unconditioned stimulus. These trained bees were then exposed to an odor pulse of a candidate compound to test whether a candidate compound would also produce a PER. If the candidate compound “mimics” 2-heptanone then the honeybee will extend its proboscis.
For conditioning procedures, Apis mellifera Carniolan foraging worker honeybees were obtained from a local apiary (typically 60 bees per shipment). The honeybees were held overnight in insect cages with food and water freely available, in an environmentally controlled room on a light cycle similar to the ambient cycle at the time of the assay.
For conditioning procedures, all tests were done in an odorant delivery apparatus set inside a fume hood. The apparatus comprised a set of open-ended, horizontal, 3 cm diameter by 10 cm long plastic tubes. Each tube was designed where a honeybee could be positioned at the distal end of a tube, with the opening at the other end of the tube located proximal to an inlet of the fume hood. To deliver an odorant, room air was pumped by a diaphragm pump through a particle filter via 0.25 inch plastic tubing at approximately 0.7 m/sec. The air flow passes into the headspace above an odorant (0.5% [v/v] 2-heptanone dissolved in odorless light paraffin oil) contained in a 100 mL bottle. The headspace air then passes through another plastic tube to a manifold of 4-way valves, each of which was attached near the proximal end of a plastic tube containing a bee. Each bee was exposed separately for a desired time period to the odorant by opening and closing the appropriate valve. When each valve was closed, the odor was flushed away immediately by the continuous fume hood air stream.
To train a honeybee to respond to a conditioned and unconditioned stimuli, bees were placed, without anesthesia, in individual 1.5 mL micro-centrifuge holding tubes and held overnight without access to food or water. The holding tubes containing the starved bees were placed in racks in groups of eight. One rack at a time was placed behind the odorant delivery apparatus so that each bee's head is centered at the distal end of a horizontal plastic tube. Each bee was exposed to the 2-heptanone odorant alone for four seconds, and then while being fed an 80% sucrose solution for and additional three seconds. The sucrose solution was delivered on a piece of saturated filter paper held in forceps. […] Positive and negative responses were recorded. A positive PER was scored when a bee extended its proboscis before the sucrose appeared. In a typical trial, 48 individual bees were subjected to conditioning.
After conditioning, honeybees were tested with the candidate compounds the same day or on the following day or, most commonly, both. When held overnight, bees were fed with sucrose and kept in their holding tubes. When tested the day after training, bees were given one or more rounds of conditioning with 2-heptatone to refresh their memories. Candidate compounds stocks were made at 5% (w/v) in polyoxyethylene octyl phenyl ether (TRITON® X-100), a non-ionic detergent/surfactant, and stored at 4° C. […] Test solutions were made fresh daily by mixing stock solutions with water for a final compound concentration of 0.5%. A solution of 0.5% 2-heptanone in paraffin oil was used as a positive control.

Compound	OBP2 binding characteristic of compound [1]	P (probability that a honeybee will return to a test dish, nP divided by n) [2]	nP (number of tests a honeybee returned to a preferred test dish) [2]	2-heptanone positive bees testing positive to compound [3] [%]
Oc1ccc2ccccc2c1C=NNc1ccccn1 [compound 66, 2-hydroxy-1-naphthaldehyde 2-pyridinylhydrazone]	Moderate (Moderate, indicates that 50% or less of the compound bound to OBP2.)	0.379	22	24.4
COc1cc(C2N=C(c3ccccc3)N=C(c3ccccc3)N2)ccc1O (centres unmarked) [compound 67, 4-(4,6-diphenyl-1,2-dihydro-1,3,5-triazin-2-yl)-2-methoxyphenol]	Moderate (Moderate, indicates that 50% or less of the compound bound to OBP2.)	0.321	9	26.5
CC(=O)c1ccccc1NC(=O)C1CCC(C(=O)Nc2ccccc2C(C)=O)S1 (centres unmarked) [compound 68, N,N′-bis(2-acetylphenyl)tetrahydro-2,5-thiophenedicarboxamide]	Moderate (Moderate, indicates that 50% or less of the compound bound to OBP2.)	0.5	2	20.8
Oc1ccc2ccccc2c1C=Nc1ccc(I)cc1 [compound 74, 1-{[(4-iodophenyl)imino]methyl}-2-naphthol]	Moderate (Moderate, indicates that 50% or less of the compound bound to OBP2.)	0.45	18	25.0
Nc1c(C(=O)c2ccccc2)sc2nc(-c3cccnc3)ccc12 [compound 75, [3-amino-6-(3-pyridinyl)thieno[2,3-b]pyridin-2-yl](phenyl)methanone]	Moderate (Moderate, indicates that 50% or less of the compound bound to OBP2.)	0.542	13	25.0
Nc1cccc2nc3c4cccc5cccc(c(=O)n3c12)c54 [compound 109]	Moderate (Moderate, indicates that 50% or less of the compound bound to OBP2.)	–	–	12.1
O=C(C=CNc1ccccc1O)c1ccc(Br)cc1 [compound 110]	Moderate (Moderate, indicates that 50% or less of the compound bound to OBP2.)	–	–	31.4
O=C1CSC(=CC(=O)c2ccc(Cl)cc2)N1 [compound 111]	Moderate (Moderate, indicates that 50% or less of the compound bound to OBP2.)	–	–	30.6
O=c1c2cc(O)cc3cccc(c32)c2nc3ccc4c5c(ccc(c35)n12)CC4 [compound 112]	Moderate (Moderate, indicates that 50% or less of the compound bound to OBP2.)	–	–	44.4
O=C(NN=Cc1ccc(-c2cccc(Cl)c2Cl)o1)c1ccncc1 [compound 113]	Moderate (Moderate, indicates that 50% or less of the compound bound to OBP2.)	–	–	11.1
COc1ccc(-c2ccc(C=NNC(=O)c3ccccn3)o2)cc1Cl [compound 114]	Moderate (Moderate, indicates that 50% or less of the compound bound to OBP2.)	–	–	22.2
CCN1C(=O)C(=Cc2cc(Br)ccc2OC)SC1=S [compound 115]	Moderate (Moderate, indicates that 50% or less of the compound bound to OBP2.)	–	–	40.0
CCN1C(=O)C(=Cc2cc(Br)ccc2O)SC1=S [compound 116]	Moderate (Moderate, indicates that 50% or less of the compound bound to OBP2.)	–	–	25.0
O=C(c1ccccc1)N1N=C(c2ccccc2)CC1(O)C(F)(F)F (centres unmarked) [compound 119]	Moderate (Moderate, indicates that 50% or less of the compound bound to OBP2.)	–	–	60.0
